Experimental data published in patent US6887713B2, “Bioactive chip mass spectrometry” (Intrinsic Bioprobes, Inc., priority 2000, dated 2005).

Target: streptavidin (Streptomyces avidinii, UniProt P22629)
Settings: mixture of 10.0 μM Pep K and 10.0 μM Pep R, 60 s at 20 μl/min, then ~15 s running buffer; immobilized streptavidin
Protocol: A bioactive chip BC containing streptavidin-derivatized separation site SS was exposed for 60 s (at a flow rate of 20 μl/min) to a mixture containing 10.0 μM Pep K and 10.0 μM Pep R, after which a ˜15 s exposure to the running buffer followed. The separation site SS on the bioactive chip BC was then MALDI-TOF MS analyzed.
The fitting parameters are listed in the figure and were used with starting concentrations of [Pep K]=7 uM; [Pep K(ox)]=3 uM; and [Pep R & Pep R(ox)]=10 uM. A criterion was used in which the relative quantities of the individual species at the end of the run corresponded to the relative quantities estimated from the mass spectrum taken from the surface of the separation site SS.

Sequence of streptavidin (P22629 25-183, species assumed): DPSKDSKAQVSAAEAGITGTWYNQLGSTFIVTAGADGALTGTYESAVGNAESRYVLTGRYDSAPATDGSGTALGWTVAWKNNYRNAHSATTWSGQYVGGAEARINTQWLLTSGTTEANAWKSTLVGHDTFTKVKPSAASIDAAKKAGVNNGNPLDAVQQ

Sequence: SGTSFHPQWIMVGRVATNSP [PepR]
- retention by / affinity for streptavidin (change in MALDI-TOF ion signal intensity ratio before vs after interaction): preferential retention
